Experimental data: patent publication US6949586B2, “Synergistic composition of trans-tetracos-15-enoic acid and Apocynin and method of treatment for hepatotoxicity” (Council of Scientific Research, priority 2002, dated 2005)

Experiments:
Assay type in all cases: in vivo
[1] = system: galactosamine, paracetamol and CCl4 as hepatotoxins; test: Earlier RRL Jammu study of hepatoprotective effect against galactosamine, paracetamol and CCl4; details: synthesized constituent; silymarin as reference material
[2] = system: Acetaminophen (APAP) induced hepatotoxicity; test: Paracetamol (Acetaminophen, APAP) induced hepatotoxicity after diethyl-ether inhalation; details: mice, 50 mg kg−1 p.o., mean ± S.E.
Excerpt: Paracetamol (APAP, Acetaminophen): It is a therapeutic agent widely used as analgesic/antipyretic drug. When taken in large doses it causes hepatic necrosis which leads to biochemical changes having clinical features similar to those of acute viral hepatitis in humans (Proudfoot and Wright, 1970). The similar effect is observed in animals. The toxic effect can be potentiated if it is given several hours after the anesthetic ether inhalation (Wells et. al., 1986). Liver injury is induced by injecting paracetamol (200 mg.kg^-1) interaperitoneally in normal saline (pH 9.4) six hour after inhalation of anesthetic ether (4 ml/4 min/6 animals) in a closed chamber. The control animals received the equal volume of vehicle. […] (Table 2) GPT and GOT: Pyruvate formed by transamination reaction is determined spectrophotometrically after reaction with 2,4-dinitrophenylhydrazine (Reitman and Frankel, 1957). ALP: p-nitrophenol formed in alkaline medium is measured spectrophotometrically using p-nitrophenyl phosphate as substrate (Walter and Schutt, 1974). Bilirubin : Total bilirubin is measured by diazotization reaction with NaNO2 (Malloy and Evelyn, 1937) Triglycerides: Triglycerides from serum are extracted with isopropanol and sopanified with KOH. The liberated glycerol is converted to formaldehyde by periodate and determined after reaction with acetyl acetone. […]

[3] = system: bile flow and bile solids; test: Chloretic activity: bile flow and bile solids after bile duct cannulation; details: rats, 50 mg kg−1 i.d.; bile collected 0-5 hours; mean ± SE
Excerpt: The liver, by producing bile, plays an important role in digestion. The presence of bile in the intestine is necessary to accomplish the digestion and absorption of fats as well as absorption of the fat-soluble vitamins—A, D, E & K. Bile is also an important vehicle of excretion. It removes many drugs, toxins, bile pigments and various inorganic substances either derived from the diet or synthesized by the body as cholesterol or as cholic acid.
Effect on the liver bile flow of test drug and that of vehicle is carried out after cannulating the bile duct in normal anaesthesied rats. Bile collected is from each animal from 0-5 hours (Klaassen, 1969, Donal et al. 1953). (Table 5)

## CCCCCCCC/C=C/CCCCCCCCCCCCCC(=O)O [TCA, trans-tetracos-15-enoic acid]
[1]
  hepatoprotective effect against galactosamine, paracetamol and CCl4 as hepatotoxins: dose related hepatoprotective effect
[2]
  Hepatic Lipid Peroxidation: 44.24 ± 2.22 n moles MDA/g liver

## C[C@H](CCC(=O)O)[C@H]1CC[C@H]2[C@@H]3C(=O)C[C@@H]4CC(=O)CC[C@]4(C)[C@H]3CC(=O)[C@]12C [DHC, Dehydrocholic acid]
[3]
  Bile flow (ml %), % Increase (as compared to normal): 38.40 ± 2.76%
  Bile solids (mg %), % Increase (as compared to normal): 28.13 ± 3.89%
